Laboratory results taken from ChEMBL document CHEMBL1145519, “Exploitation of structural and regulatory diversity in glutamate racemases” (Nature, 2007).
The source made the active and inactive calls. No cut-off for these calls is given here.

Tests used:
Helicobacter pylori = assay: Increase in UDP-MurNAc-Ala level in Helicobacter pylori; type: functional, organism-based

Description for Enterococcus faecium: Activity of Enterococcus faecium MurI
Description for Escherichia coli: Activity of Escherichia coli MurI
Description for Staphylococcus aureus: Activity of Staphylococcus aureus MurI

SMILES	Activity (Helicobacter pylori)	Km (Escherichia coli) [µM]	kcat (Escherichia coli) [s⁻¹]	Km (Staphylococcus aureus) [µM]	kcat (Staphylococcus aureus) [s⁻¹]	Km (Enterococcus faecium) [µM]
CC(C)Cn1c(=O)n(C)c(=O)c2c(-c3ccncc3)n(Cc3cccc4ccccc34)nc21	Active	–	–	–	–	–
N[C@@H](CCC(=O)O)C(=O)O	–	1200	12.2	4600	8.5	1100
N[C@H](CCC(=O)O)C(=O)O	–	2100	43.3	140	0.567	240
